Measurements taken from patent US20250009743A1, “METHODS OF TREATING CANCERS USING STING AGONISTS” (Dana-Farber Cancer Institute, Inc., priority 2021, published 2025).

Tests used:
[1] = test system: ID8-Brca1^−/− tumor cells in WT and STING^−/− mice; experiment: Macrophages and myeloid DCs in WT and STING^−/− mice injected with ID8-Brca1^−/− tumor cells; assay type: in vivo, mouse; details: 24 h treatment; FIG. 21K, FIG. 22D
Procedure: Tumors were chopped and digested in collagenase buffer as described previously (Ding et al., 2018 Cell Rep 25, 2972-2980.e2975). Single cell suspensions of tumor and ascites were obtained by filtering through 70 um strainers and treated with 1× eBioscience RBC lysis buffer (Thermo Fisher) before staining. Single cells suspensions were incubated with LIVE/DEAD Fixable Aqua Dead Cell Stain (Life Technologies, Cat #L34965) for 30 min and then blocked with anti-CD16/32 (Biolegend, clone 93) for 20 min on ice. Samples were then incubated with appropriate antibodies for 30 min on ice. Foxp3 staining buffer set (eBioscience, Cat #00-5523-00) was applied for intracellular markers staining. For the intracellular cytokine analysis, cells were stimulated with Leukocyte Activation Cocktail (BD Biosciences, Cat #550583) at 37° C. for 4-6 hours prior to FACS staining. […] Flow cytometry was performed on an LSRII (BD Biosciences) or Fortessa HTS (BD Biosciences) at DFCI Flow Cytometry Core, and all the data were analyzed using FlowJo software.

BP-sgControl tumors = experiment: BP-sgControl tumor growth and survival in FVB mice; assay type: in vivo, mouse; details: DMXAA 10 mg/kg i.p. weekly; olaparib 50 mg/kg i.p. q.d.; FIG. 11G
Procedure: Primary mammary tumor cells for orthotopic injection were resuspended in serum-free DMEM containing 40% matrigel (Corning). 5×10^5 tumor cells in a total volume of 100 μL were injected orthotopically into the thoracic mammary fat pads of 8-week-old female FVB/NJ mice (The Jackson Laboratory). Tumor growth was examined by measuring the greatest longitudinal diameter (length) and the greatest transverse diameter (width) with digital calipers, and tumor volume was calculated by use of the modified ellipsoid formula (0.52×length×width2). Tumors were measured 2-3 times a week. All tumor measurements within single cohorts were performed by the same researcher. Tumor-bearing mice were randomized prior to start of treatment. Drug treatments were started when mean tumor volumes approximated 50-100 mm3. Mice were euthanized by CO2 inhalation when tumor volumes met humane endpoints described in the IACUC (20 mm diameter) protocols or upon severe health deterioration.
Olaparib (MedChem, #HY-10162) was prepared by diluting 100 mg/l mL stocks in DMSO with 10% (2-Hydroxypropyl)-β-cyclodextrin (HPCD, MedChem, #101103) in PBS and administered immediately after drug preparation by intraperitoneal (i.p.) injection at a dose of 50 mg/kg body weight daily. DMXAA (Sigma, #D5817) was reconstituted at 10 mg/mL in 7.5% NaHCO3(Gibco). […]

PBM tumor cells = experiment: Cytokine array of medium of PBM cells; assay type: cell-based, mouse; details: olaparib-treated PBM cells; FIG. 19F
Procedure: The PBM tumor cells were cultured in 6-well plate for 24 hrs and treated with olaparib or vehicle control. Drug was removed after 24 hrs' treatment, and cells were cultured in fresh medium for another 48 hrs. Cell culture supernatants were obtained by centrifugation at 1,500 g for 5 min at 4° C. to remove all the debris and cells then subjected to Cytokine array analysis (ARY028, R&D system) according to manufactories introduction. Briefly, the cell culture supernatants were mixed with a cocktail of biotinylated detection antibodies, and then incubated with the Mouse Cytokine Array. The array was then incubated with streptavidin-horseradish peroxidase followed by chemiluminescent detection. Array images were analyzed using the Image J software.

COc1cc2cc(C(=O)CCC(=O)O)sc2cc1OC [MSA-2]
myeloid DC activation and TAM repolarization in WT mice [1]: successfully activated myeloid DCs and repolarized M2-like TAM to M1-like status

Cc1ccc2c(=O)c3cccc(CC(=O)O)c3oc2c1C [DMXAA, 5,6-dimethyl-xanthenone-4-acetic acid]
BP-sgControl tumor growth (BP-sgControl tumors): no significant impact

O=C(c1cc(Cc2n[nH]c(=O)c3ccccc23)ccc1F)N1CCN(C(=O)C2CC2)CC1 [olaparib]
STAT3-regulated chemokines (CCL2, CX3CL1, CCL20 and CXCL1) in CM (PBM tumor cells): significantly increased
